From PubChem BioAssay (NCI)
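Five concentrations, 48 hours, 96-well plates. GI50 marks 50% less growth. TGI marks complete inhibition of growth.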

Experiments:
Assay in all cases: NCI-60 cell line screen, 48 h
[1] = tested on: IGROV1 ovarian
[2] = tested on: HT29 colon
[3] = tested on: MDA-MB-231 breast
[4] = tested on: M14 melanoma
[5] = tested on: HS 578T breast
[6] = tested on: SN12C renal
[7] = tested on: MALME-3M melanoma
[8] = tested on: COLO 205 colon
[9] = tested on: ACHN renal
[10] = tested on: RPMI-8226 leukemia

Structure (SMILES)	GI50 [1] [µM]	TGI [1] [µM]	GI50 [2] [µM]	TGI [2] [µM]	GI50 [3] [µM]	TGI [3] [µM]	GI50 [4] [µM]	TGI [4] [µM]	GI50 [5] [µM]	TGI [5] [µM]	GI50 [6] [µM]	TGI [6] [µM]	GI50 [7] [µM]	TGI [7] [µM]	GI50 [8] [µM]	TGI [8] [µM]	GI50 [9] [µM]	TGI [9] [µM]	GI50 [10] [µM]	TGI [10] [µM]
Cc1cc(O)cc(C)c1/C=C/c1cncc(C(=O)OC(C)(C)C)c1	13.2	> 25	> 16.8	> 25	14	> 25	> 24	> 25	7.64	24.7	12.6	> 25	> 16.6	> 25	> 25	> 25	12.7	> 25	> 22.4	> 25
CC1(C)CC(=O)c2c(ccc(C(=O)C[C@@H](N)CO)c2N)O1	0.958	> 100	0.34	> 91.1	3.13	> 100	0.664	8.41	20.6	> 100	0.788	> 100	12.5	> 76.9	1.05	> 37.3	1.25	> 100	1.56	21.4
CN(C)c1ccc(C(=C2C=CC(=[N+](C)C)C=C2)c2ccccc2Cl)cc1	0.365	1.34	0.167	1.03	0.338	1.73	0.274	0.942	0.207	2.78	0.239	1.67	0.266	1.05	0.17	0.312	0.4	1.61	0.184	0.893
COC(=O)/C(=C\c1c(-c2ccccc2)[nH]c2ccccc12)S(C)(=O)=O	1.67	9.17	3.58	46.1	2.39	17.7	3.34	> 100	3.46	> 100	3.14	32	12.2	44.2	4.39	18.5	9.18	23.8	6.15	96.4
CC(OC(=O)N(N(CCCl)S(C)(=O)=O)S(C)(=O)=O)c1ccc([N+](=O)[O-])cc1 (stereo not given)	> 96.6	> 100	65	> 100	> 51	96.8	49.4	> 100	> 54.7	> 92	34.9	> 100	41.5	> 100	77.6	> 100	> 100	> 100	> 40.4	> 61.4
CN(C)CCOc1ccc(-c2cc(-c3ccc4c(c3)CC/C4=N\O)c(-c3ccncc3)o2)cc1	4.7	10.1	0.451	4.39	3.34	7.19	0.0653	3.39	4.59	12.4	3.96	7.73	0.0245	0.179	0.112	4.35	3.62	6.98	4.28	10.7
Oc1c(CNCCNCc2cc(Cl)cc(Cc3ccccc3)c2O)cc(Cl)cc1Cc1ccccc1	0.475	16.3	0.668	20	0.73	25	0.316	10.7	3.91	59.3	0.483	19.4	0.6	7.6	0.309	1.53	0.127	11.8	0.695	6.39
CC(=O)/C(=C\c1c(-c2ccccc2)[nH]c2ccccc12)S(=O)(=O)c1ccccc1	1.51	4.37	0.576	2.32	1.74	19.2	0.513	2.15	3.81	> 93.8	1.82	9.59	1.98	9.19	1.54	5.62	2.06	5.09	2.23	7.14
CCN(Cc1cccc(F)c1F)c1ccc(CO)c(Cl)c1	0.0668	0.335	3.83	19	16.1	36.1	17.9	35.1	17.9	48.7	13.4	30.2	16	34.2	2.47	7.59	17.8	> 51.7	2.32	39.7
Clc1ccc(N2CCC(N3CCCC3)CC2)cc1-c1nc2ccccc2[nH]1	33.8	> 100	15.1	35.8	17.1	32.5	16.7	31.8	16.8	51.7	25	> 73.7	17.4	33.6	16	30.8	26.7	67.4	20.9	53.8
Nc1cc2nc3ccccc3oc-2cc1=O	2.79	21.2	2.58	> 21.7	22.9	> 100	1.61	3.01	1.48	5.52	1.46	2.9	1.67	3.63	1.82	3.42	12.4	> 79	0.951	> 20.4
